From US12378211B2, “Carbonic anhydrase inhibitors and antibiotics against multidrug resistant bacteria” (Purdue Research Foundation, priority 2018, dated 2025)
Values after ≈ are worked out from the molar mass of the structure shown. Read-outs that look alike come from different tables or passages of the source.

Key:
[1] = test system: Enterococcus faecalis-S613 HM-334; test: MIC in presence of 4% human serum albumin; format: cell-based; settings: Enterococcus; TSB supplemented with 4% human serum albumin; read-out: MIC
Protocol: (§1) The minimum inhibitory concentrations (MICs) of CAIs were tested against vancomycin resistant Enterococcus faecalis—S613 HM 334 strain as per the guidelines provided by the Clinical and Laboratory Standards Institute (CLSI). The selected strain was streaked on Tryptic Soy Agar (TSA) plate and let grow for 24 hours at 37° C. Afterwards, a bacterial solution equivalent to 0.5 McFarland standard was prepared and diluted in tryptone soy broth (TSB) supplemented with 4% human serum albumin (HAS) to achieve a bacterial concentration of about 5×10^5 CFU/mL and seeded in 96-well well plates. Compounds and control drugs were added in the first row of the 96-well plates and serially diluted along the plates. Plates were then incubated aerobically at 37° C. for 18-20 hours. MICs reported in table (6) are the minimum concentration of the compounds/control drugs that could inhibit completely the visual growth of the bacteria.

[2] = test system: Enterococcus faecium Patient #2-1-NR-31909; test: MIC of CAIs in BHIB and TSB; format: cell-based; settings: Enterococcus faecium, read-out: MIC
Protocol: as §1, with “against clinical isolates of vancomycin sensitive and” for “against”, “resistant Enterococci strains” for “resistant Enterococcus faecalis—S613 HM 334 strain”, “selected strains of Enterococci were” for “selected strain was”, “(TSA) plates” for “(TSA) plate”, “(TSB) or brain heart infusion broth (BHIB)” for “(TSB) supplemented with 4% human serum albumin (HAS)”, “in Table 5” for “in table (6)”

[3] = test system: Enterococcus fecalis Strain SF 24397 NR31970; test: MIC of CAIs in BHIB and TSB; format: cell-based; settings: Enterococcus, read-out: MIC
Protocol: as §1, with “against clinical isolates of vancomycin sensitive and” for “against”, “resistant Enterococci strains” for “resistant Enterococcus faecalis—S613 HM 334 strain”, “selected strains of Enterococci were” for “selected strain was”, “(TSA) plates” for “(TSA) plate”, “(TSB) or brain heart infusion broth (BHIB)” for “(TSB) supplemented with 4% human serum albumin (HAS)”, “in Table 5” for “in table (6)”

[4] = test system: Enterococcus faecium E417-HM-965; test: MIC of CAIs in BHIB and TSB; format: cell-based; settings: Enterococcus faecium, read-out: MIC
Protocol: as §1, with “against clinical isolates of vancomycin sensitive and” for “against”, “resistant Enterococci strains” for “resistant Enterococcus faecalis—S613 HM 334 strain”, “selected strains of Enterococci were” for “selected strain was”, “(TSA) plates” for “(TSA) plate”, “(TSB) or brain heart infusion broth (BHIB)” for “(TSB) supplemented with 4% human serum albumin (HAS)”, “in Table 5” for “in table (6)”

[5] = test system: Enterococcus faecalis—S613 HM-334; test: MIC of CAIs in BHIB and TSB; format: cell-based; settings: Enterococcus, read-out: MIC
Protocol: The minimum inhibitory concentrations (MICs) of CAIs were tested against clinical isolates of vancomycin sensitive and vancomycin resistant Enterococci strains as per the guidelines provided by the Clinical and Laboratory Standards Institute (CLSI). The selected strains of Enterococci were streaked on Tryptic Soy Agar (TSA) plates and let grow for 24 hours at 37° C. Afterwards, a bacterial solution equivalent to 0.5 McFarland standard was prepared and diluted in tryptone soy broth (TSB) or brain heart infusion broth (BHIB) to achieve a bacterial concentration of about 5×10^5 CFU/mL and seeded in 96-well well plates. Compounds and control drugs were added in the first row of the 96-well plates and serially diluted along the plates. Plates were then incubated aerobically at 37° C. for 18-20 hours. MICs reported in Table 5 are the minimum concentration of the compounds/control drugs that could inhibit completely the visual growth of the bacteria. The MIC values of CAIs against the tested VRE strains were higher in BHIB than in TSB. This may be due to binding of these drugs to proteins. […] They inhibited the VRE strains at MIC values ranging from 1 to 4 μg/mL.

[6] = test system: Staphylococcus epidermidis NRS 101; test: MIC against Staphylococci, broth microdilution; format: cell-based; settings: Staphylococcus epidermidis, NRS101; TSB; read-out: MIC
Protocol: (§2) The minimum inhibitory concentrations (MICs) of the compounds and control drugs were determined using the broth microdilution method, according to guidelines outlined by the Clinical and Laboratory Standards Institute (CLSI) 1. Staphylococci strains were grown aerobically overnight on tryptone soya agar plates at 37° C., afterwards a bacterial solution equivalent to 0.5 McFarland standard was prepared and diluted in tryptone soy broth (TSB) to achieve a bacterial concentration of about 5×10^5 CFU/mL and seeded in 96-well well plates. Compounds and control drugs were added in the first row of the 96-well plates and serially diluted along the plates. Plates were then incubated aerobically at 37° C. for 18-20 hours. MICs reported in Table 2 are the minimum concentration of the compounds/control drugs that could inhibit completely the visual growth of the bacteria.

[7] = test system: MRSA NRS 384 (MRSA USA300); test: MIC against Staphylococci, broth microdilution; format: cell-based, Staphylococcus aureus; settings: Staphylococcus aureus; TSB; read-out: MIC
Protocol: as §2

[8] = test system: Enterococcus faecium Patient #2-1-NR-31909; test: MIC, broth microdilution in TSB; format: cell-based; settings: Enterococcus faecium, TSB
Protocol: as §2, with “Institute (CLSI). Enterococci” for “Institute (CLSI) 1. Staphylococci”, “Table 1” for “Table 2”

[9] = test system: Enterococcus fecalis Strain SF 24397 NR31970; test: MIC, broth microdilution in TSB; format: cell-based; settings: Enterococcus, TSB
Protocol: as §2, with “Institute (CLSI). Enterococci” for “Institute (CLSI) 1. Staphylococci”, “Table 1” for “Table 2”

[10] = test system: Enterococcus fecalis Strain MMH594-NR31975; test: MIC, broth microdilution in TSB; format: cell-based; settings: Enterococcus, TSB
Protocol: as §2, with “Institute (CLSI). Enterococci” for “Institute (CLSI) 1. Staphylococci”, “Table 1” for “Table 2”

[11] = test system: Enterococcus faecium E417-HM-965; test: MIC, broth microdilution in TSB; format: cell-based; settings: Enterococcus faecium, E417HM965, TSB
Protocol: as §2, with “Institute (CLSI). Enterococci” for “Institute (CLSI) 1. Staphylococci”, “Table 1” for “Table 2”

[12] = test system: Enterococcus faecium Patient #3-1 NR-31912; test: MIC, broth microdilution in TSB; format: cell-based; settings: Enterococcus faecium, TSB
Protocol: as §2, with “Institute (CLSI). Enterococci” for “Institute (CLSI) 1. Staphylococci”, “Table 1” for “Table 2”

[13] = test system: Enterococcus faecalis—S613 HM-334; test: MIC, broth microdilution in TSB; format: cell-based; settings: Enterococcus, TSB
Protocol: as §2, with “Institute (CLSI). Enterococci” for “Institute (CLSI) 1. Staphylococci”, “Table 1” for “Table 2”

[14] = test system: Enterococcus fecalis Strain SF 28073-NR31972; test: MIC, broth microdilution in TSB; format: cell-based; settings: Enterococcus, TSB
Protocol: as §2, with “Institute (CLSI). Enterococci” for “Institute (CLSI) 1. Staphylococci”, “Table 1” for “Table 2”

[15] = test system: Enterococcus fecalis Strain SF24413 NR31971; test: MIC, broth microdilution in TSB; format: cell-based; settings: Enterococcus, TSB
Protocol: as §2, with “Institute (CLSI). Enterococci” for “Institute (CLSI) 1. Staphylococci”, “Table 1” for “Table 2”

[16] = test system: Bacteroides fragilis—CL07T00C01 HIM-709; test: MIC against human normal gut microbiota; format: cell-based; settings: Bacteroides; BHIS broth, anaerobic, 48 hours; read-out: MIC
Protocol: (§3) Three different bacterial strains were used in this experiment; Bifidobacterium (anaerobic Gram positive bacteria), Bacteroides (anaerobic Gram negative bacteria) and Lactobacillus (microaerophilic Gram positive bacteria). Bifidobacterium and Bacteroides were first grown for 48 hours at 37° C., anaerobically using brain heart infusion supplemented (BHIS) agar (Brain heart infusion agar supplemented with hemin, vitamin K and L-cysteine). Lactobacillus was cultivated on MRS agar and incubated in presence of 5% CO2 for 48 hours at 37° C. Each bacterium was suspended in phosphate buffered saline (PBS) to produce a suspension with optical density that matches 0.5 McFarland standard and diluted in brain heart infusion supplemented broth (for Bifidobacterium and Bacteroides) or in MRS broth (for Lactobacillus) to achieve bacterial concentration of approximately 5×10^5 CFU/ml. Bacteria were then seeded in 96-well plates containing serial dilutions of the compounds and incubated as mentioned previously for 48 hours.

[17] = test system: Bacteroides dorei—CL02T12C06 HM-719; test: MIC against human normal gut microbiota; format: cell-based; settings: Bacteroides; BHIS broth, anaerobic, 48 hours; read-out: MIC
Protocol: as §3

[18] = test system: Lactobacillus gasseri EX336960VC03 HIM-400; test: MIC against human normal gut microbiota; format: cell-based; settings: Lactobacillus gasseri; MRS broth, 5% CO2, 48 hours; read-out: MIC
Protocol: as §3

[19] = test system: Lactobacillus casei ATCC 334; test: MIC against human normal gut microbiota; format: cell-based; settings: Lacticaseibacillus casei, ATCC334; MRS broth, 5% CO2, 48 hours; read-out: MIC
Protocol: as §3

[20] = test system: Bifidobacterium longum subsp. Longum—44B HM 845; test: MIC against human normal gut microbiota; format: cell-based; settings: Bifidobacterium longum; BHIS broth, anaerobic, 48 hours; read-out: MIC
Protocol: as §3

[21] = test system: Bifidobacterium breve—JCP7499 HIM 1120; test: MIC against human normal gut microbiota; format: cell-based; settings: Bifidobacterium; BHIS broth, anaerobic, 48 hours; read-out: MIC
Protocol: as §3

SMILES	MIC [6]	MIC [7]	MIC ([8]; Table 1, read-out: MIC)	MIC ([8]; Table 7, read-out: MIC in TSB)	MIC ([9]; Table 1, read-out: MIC)	MIC ([9]; Table 7, read-out: MIC in TSB)	MIC ([10]; Table 1, read-out: MIC)	MIC ([10]; Table 7, read-out: MIC in TSB)	MIC ([11]; Table 1, read-out: MIC)	MIC ([11]; Table 7, read-out: MIC in TSB)	MIC ([12]; Table 1, read-out: MIC)	MIC ([12]; Table 7, read-out: MIC in TSB)	MIC ([13]; Table 1, read-out: MIC)	MIC ([13]; Table 7, read-out: MIC in TSB)	MIC ([14]; Table 1, read-out: MIC)	MIC ([14]; Table 7, read-out: MIC in TSB)	MIC ([15]; Table 1, read-out: MIC)	MIC ([15]; Table 7, read-out: MIC in TSB)	MIC [16]	MIC [17]	further results
CC(=O)/N=c1/sc(S(N)(=O)=O)nn1C [Methazolamide]																					MIC [1]: > 256 µg/mL; MIC ([2]; BHIB): > 128 µg/mL; MIC ([2]; TSB, Table 5): 8 µg/mL; MIC ([3]; BHIB): > 128 µg/mL; MIC ([3]; TSB, Table 5): 2 µg/mL; MIC ([4]; E417HM965, BHIB): 64 µg/mL; MIC ([4]; E417HM965, TSB, Table 5): 4 µg/mL; MIC ([5]; BHIIB): > 128 µg/mL; MIC ([5]; TSB, Table 5): 1 µg/mL
NS(=O)(=O)c1nnc(NC(=O)c2ccccc2)s1 [CAI0012, N-(5-Sulfamoyl-1,3,4-thiadiazol-2-yl)benzamide]	> 64 µg/mL	> 64 µg/mL	1 µg/mL (≈ 3.52 µM)	1 µg/mL (≈ 3.52 µM)	4 µg/mL (≈ 14.1 µM)	4 µg/mL (≈ 14.1 µM)	4 µg/mL (≈ 14.1 µM)	4 µg/mL (≈ 14.1 µM)	2 µg/mL (≈ 7.03 µM)	2 µg/mL (≈ 7.03 µM)	1 µg/mL (≈ 3.52 µM)	1 µg/mL (≈ 3.52 µM)	4 µg/mL (≈ 14.1 µM)	4 µg/mL (≈ 14.1 µM)	8 µg/mL (≈ 28.1 µM)	8 µg/mL (≈ 28.1 µM)	4 µg/mL (≈ 14.1 µM)	4 µg/mL (≈ 14.1 µM)	> 64 µg/mL	> 64 µg/mL	MIC [18]: > 64 µg/mL; MIC [19]: > 64 µg/mL; MIC [20]: > 64 µg/mL; MIC [21]: > 64 µg/mL
CCC(=O)Nc1nnc(S(N)(=O)=O)s1 [CAI0009, N-(5-Sulfamoyl-1,3,4-thiadiazol-2-yl) propionamide]	> 64 µg/mL	> 64 µg/mL	1 µg/mL (≈ 4.23 µM)	1 µg/mL (≈ 4.23 µM)	4 µg/mL (≈ 16.9 µM)	4 µg/mL (≈ 16.9 µM)	2 µg/mL (≈ 8.46 µM)	2 µg/mL (≈ 8.46 µM)	1 µg/mL (≈ 4.23 µM)	1 µg/mL (≈ 4.23 µM)	1 µg/mL (≈ 4.23 µM)	1 µg/mL (≈ 4.23 µM)	2 µg/mL (≈ 8.46 µM)	2 µg/mL (≈ 8.46 µM)	4 µg/mL (≈ 16.9 µM)	4 µg/mL (≈ 16.9 µM)	4 µg/mL (≈ 16.9 µM)	4 µg/mL (≈ 16.9 µM)	> 64 µg/mL	> 64 µg/mL	MIC [18]: > 64 µg/mL; MIC [19]: > 64 µg/mL; MIC [20]: > 64 µg/mL; MIC [21]: > 64 µg/mL
